From ChEMBL document CHEMBL4130451, “Design and Synthesis of N-Aryl Phenoxyethoxy Pyridinones as Highly Selective and CNS Penetrant mGlu3 NAMs” (ACS Med Chem Lett, 2017)
Active and inactive are the calls of the source. The rule behind the calls is not given here.

Columns and labels:
[1] = target: Metabotropic glutamate receptor 2 (Rattus norvegicus, UniProt P31421); assay: Negative allosteric modulation of rat mGlu2 receptor expressed in HEK293 cells coexpressing Galpha15 assessed as inhibition of glutamate induced-calcium mobilization preincubated for 2.3 mins followed by glutamate addition measured for 1.9 mins by Fluo-4 AM dye based fluorescence assay; format: functional, cell-based
[2] = target: Metabotropic glutamate receptor 3 (Rattus norvegicus, UniProt P31422); assay: (§1) Negative allosteric modulation of rat mGlu3 receptor expressed in TREX cells coexpressing Galpha15 assessed as inhibition of glutamate induced-calcium mobilization preincubated for 2.3 mins followed by glutamate addition measured for 2.6 mins by Fluo-4 AM dye based fluorescence assay; format: functional, cell-based
[3] = target: Metabotropic glutamate receptor 3 (Rattus norvegicus) (UniProt P31422); assay: as §1, with “mobilization by measuring minimum glutamate response” for “mobilization”, “assay relative to glutamate” for “assay”; format: functional, cell-based
[4] = target: Metabotropic glutamate receptor 5 (Rattus norvegicus) (UniProt P31424); assay: Positive allosteric modulation of rat mGlu5 receptor expressed in HEK293A cells assessed as increase in glutamate induced-calcium mobilization by measuring maximum glutamate response preincubated for 2.3 mins followed by glutamate addition measured for 1.9 mins by Fluo-4 AM dye based fluorescence assay relative to glutamate; format: functional, cell-based
[5] = target: Metabotropic glutamate receptor 5 (Rattus norvegicus, UniProt P31424); assay: Positive allosteric modulation of rat mGlu5 receptor expressed in HEK293A cells assessed as increase in glutamate induced-calcium mobilization preincubated for 2.3 mins followed by glutamate addition measured for 1.9 mins by Fluo-4 AM dye based fluorescence assay; format: functional, cell-based
[6] = system: Mus musculus; assay: Antidepressant activity in CD-1 mouse assessed as reduction in immobility time at 30 mg/kg administered ip 15 mins prior to test measured for 6 mins by tail suspension test; format: functional, organism-based
[7] = target: Cytochrome P450 2C9 (Homo sapiens, UniProt P11712); assay: Inhibition of CYP2C9 in human liver microsomes using diclofenac as substrate after 15 mins in presence of NADPH by LC/MS/MS analysis; format: ADME
[8] = Fraction unbound in rat plasma at 5 uM after 4 hrs by equilibrium dialysis based LC/MS/MS analysis; format: ADME, cell-free
[9] = Brain to plasma partition coefficient, Kp of the compound in rat; format: ADME
[10] = target: Cytochrome P450 3A4 (Homo sapiens, UniProt P08684); assay: Inhibition of CYP3A4 in human liver microsomes using midazolam as substrate after 15 mins in presence of NADPH by LC/MS/MS analysis; format: ADME
[11] = target: Cytochrome P450 1A2 (Homo sapiens, UniProt P05177); assay: Inhibition of CYP1A2 in human liver microsomes using phenacetin as substrate after 15 mins in presence of NADPH by LC/MS/MS analysis; format: ADME
[12] = Unbound brain-to-plasma concentration ratio in rat; format: ADME; settings: read-out: K(p,uu,brain)
[13] = Fraction unbound in human plasma at 5 uM after 4 hrs by equilibrium dialysis based LC/MS/MS analysis; format: ADME, cell-free
[14] = target: Cytochrome P450 2D6 (Homo sapiens, UniProt P10635); assay: Inhibition of CYP2D6 in human liver microsomes using dextromethorphan as substrate after 15 mins in presence of NADPH by LC/MS/MS analysis; format: ADME
[15] = Fraction unbound in rat brain homogenate at 5 uM after 6 hrs by equilibrium dialysis based LC/MS/MS analysis; format: ADME, tissue-based
[16] = organism: Rattus norvegicus; assay: Selectivity ratio of EC50 for positive allosteric modulation of rat mGlu5 receptor expressed in HEK293A cells to IC50 for negative allosteric modulation of rat mGlu3 receptor expressed in TREX cells coexpressing Galpha15; format: cell-based
[17] = Drug uptake in Harlan CD-1 mouse brain at 3 mg/kg, ip by LC/MS-MS analysis; format: ADME, organism-based; settings: in vivo, read-out: Drug uptake
[18] = Ratio of drug uptake in Harlan CD-1 mouse brain at 3 mg/kg, ip to IC50 for negative allosteric modulation of rat mGlu2 receptor expressed in HEK293 cells coexpressing Galpha15; format: ADME, organism-based; settings: in vivo
[19] = system: Mus musculus; assay: Antidepressant activity in CD-1 mouse assessed as reduction in immobility time up to 30 mg/kg administered ip 15 mins prior to test measured for 6 mins by tail suspension test; format: functional, organism-based

Sequence of Metabotropic glutamate receptor 5 (P31424 whole entry): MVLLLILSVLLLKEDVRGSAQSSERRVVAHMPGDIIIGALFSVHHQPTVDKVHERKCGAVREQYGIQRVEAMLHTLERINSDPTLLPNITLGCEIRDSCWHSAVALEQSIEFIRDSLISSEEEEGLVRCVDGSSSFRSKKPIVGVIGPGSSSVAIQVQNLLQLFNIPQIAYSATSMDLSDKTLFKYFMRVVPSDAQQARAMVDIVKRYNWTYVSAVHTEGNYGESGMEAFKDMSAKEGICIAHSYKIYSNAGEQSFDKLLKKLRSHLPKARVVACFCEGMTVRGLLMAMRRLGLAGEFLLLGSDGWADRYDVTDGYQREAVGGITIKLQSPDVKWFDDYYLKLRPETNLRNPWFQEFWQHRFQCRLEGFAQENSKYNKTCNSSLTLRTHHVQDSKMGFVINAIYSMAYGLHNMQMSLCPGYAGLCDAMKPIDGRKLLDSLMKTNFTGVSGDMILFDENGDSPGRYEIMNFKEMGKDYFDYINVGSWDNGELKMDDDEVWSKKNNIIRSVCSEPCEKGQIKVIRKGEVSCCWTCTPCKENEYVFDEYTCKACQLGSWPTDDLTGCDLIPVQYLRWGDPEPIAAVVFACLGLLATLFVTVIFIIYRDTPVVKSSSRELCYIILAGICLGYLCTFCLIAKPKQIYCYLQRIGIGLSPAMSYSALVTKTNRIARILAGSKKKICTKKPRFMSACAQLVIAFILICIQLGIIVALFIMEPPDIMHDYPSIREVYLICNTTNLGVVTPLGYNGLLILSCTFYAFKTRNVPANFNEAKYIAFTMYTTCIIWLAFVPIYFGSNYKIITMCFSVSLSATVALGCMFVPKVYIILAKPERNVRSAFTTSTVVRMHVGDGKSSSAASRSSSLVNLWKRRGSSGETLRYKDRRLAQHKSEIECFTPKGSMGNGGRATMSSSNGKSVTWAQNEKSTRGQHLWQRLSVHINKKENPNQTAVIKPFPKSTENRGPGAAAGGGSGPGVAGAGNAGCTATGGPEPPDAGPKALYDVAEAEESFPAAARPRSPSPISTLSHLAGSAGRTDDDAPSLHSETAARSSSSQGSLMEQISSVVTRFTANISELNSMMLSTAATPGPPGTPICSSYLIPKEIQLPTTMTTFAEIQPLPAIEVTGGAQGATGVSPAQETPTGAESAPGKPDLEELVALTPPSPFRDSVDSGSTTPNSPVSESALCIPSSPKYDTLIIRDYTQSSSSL
Sequence of Metabotropic glutamate receptor 3 (Rattus norvegicus) (P31422 23-879 limits assumed): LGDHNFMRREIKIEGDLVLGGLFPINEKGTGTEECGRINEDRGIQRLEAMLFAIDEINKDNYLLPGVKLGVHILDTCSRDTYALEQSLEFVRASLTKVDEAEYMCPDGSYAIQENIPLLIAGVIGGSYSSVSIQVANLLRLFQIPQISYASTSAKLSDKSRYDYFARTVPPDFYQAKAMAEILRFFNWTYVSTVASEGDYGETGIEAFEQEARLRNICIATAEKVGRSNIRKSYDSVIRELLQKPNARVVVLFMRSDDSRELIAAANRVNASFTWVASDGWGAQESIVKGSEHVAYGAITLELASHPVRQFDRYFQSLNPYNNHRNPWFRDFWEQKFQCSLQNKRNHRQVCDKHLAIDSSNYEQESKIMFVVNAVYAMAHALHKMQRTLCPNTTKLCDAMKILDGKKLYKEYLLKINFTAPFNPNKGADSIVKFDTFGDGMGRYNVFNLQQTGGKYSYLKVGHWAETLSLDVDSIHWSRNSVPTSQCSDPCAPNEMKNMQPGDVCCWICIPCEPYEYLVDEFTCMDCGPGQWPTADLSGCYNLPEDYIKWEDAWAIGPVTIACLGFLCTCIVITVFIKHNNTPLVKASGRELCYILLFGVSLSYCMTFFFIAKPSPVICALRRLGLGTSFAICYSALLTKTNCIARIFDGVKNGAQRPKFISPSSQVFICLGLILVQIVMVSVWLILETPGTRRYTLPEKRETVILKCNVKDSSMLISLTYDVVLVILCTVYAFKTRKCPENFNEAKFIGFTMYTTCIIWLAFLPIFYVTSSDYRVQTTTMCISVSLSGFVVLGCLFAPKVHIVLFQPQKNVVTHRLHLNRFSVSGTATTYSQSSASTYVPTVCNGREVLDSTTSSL
Sequence of Metabotropic glutamate receptor 5 (Rattus norvegicus) (P31424 21-1203 limits assumed): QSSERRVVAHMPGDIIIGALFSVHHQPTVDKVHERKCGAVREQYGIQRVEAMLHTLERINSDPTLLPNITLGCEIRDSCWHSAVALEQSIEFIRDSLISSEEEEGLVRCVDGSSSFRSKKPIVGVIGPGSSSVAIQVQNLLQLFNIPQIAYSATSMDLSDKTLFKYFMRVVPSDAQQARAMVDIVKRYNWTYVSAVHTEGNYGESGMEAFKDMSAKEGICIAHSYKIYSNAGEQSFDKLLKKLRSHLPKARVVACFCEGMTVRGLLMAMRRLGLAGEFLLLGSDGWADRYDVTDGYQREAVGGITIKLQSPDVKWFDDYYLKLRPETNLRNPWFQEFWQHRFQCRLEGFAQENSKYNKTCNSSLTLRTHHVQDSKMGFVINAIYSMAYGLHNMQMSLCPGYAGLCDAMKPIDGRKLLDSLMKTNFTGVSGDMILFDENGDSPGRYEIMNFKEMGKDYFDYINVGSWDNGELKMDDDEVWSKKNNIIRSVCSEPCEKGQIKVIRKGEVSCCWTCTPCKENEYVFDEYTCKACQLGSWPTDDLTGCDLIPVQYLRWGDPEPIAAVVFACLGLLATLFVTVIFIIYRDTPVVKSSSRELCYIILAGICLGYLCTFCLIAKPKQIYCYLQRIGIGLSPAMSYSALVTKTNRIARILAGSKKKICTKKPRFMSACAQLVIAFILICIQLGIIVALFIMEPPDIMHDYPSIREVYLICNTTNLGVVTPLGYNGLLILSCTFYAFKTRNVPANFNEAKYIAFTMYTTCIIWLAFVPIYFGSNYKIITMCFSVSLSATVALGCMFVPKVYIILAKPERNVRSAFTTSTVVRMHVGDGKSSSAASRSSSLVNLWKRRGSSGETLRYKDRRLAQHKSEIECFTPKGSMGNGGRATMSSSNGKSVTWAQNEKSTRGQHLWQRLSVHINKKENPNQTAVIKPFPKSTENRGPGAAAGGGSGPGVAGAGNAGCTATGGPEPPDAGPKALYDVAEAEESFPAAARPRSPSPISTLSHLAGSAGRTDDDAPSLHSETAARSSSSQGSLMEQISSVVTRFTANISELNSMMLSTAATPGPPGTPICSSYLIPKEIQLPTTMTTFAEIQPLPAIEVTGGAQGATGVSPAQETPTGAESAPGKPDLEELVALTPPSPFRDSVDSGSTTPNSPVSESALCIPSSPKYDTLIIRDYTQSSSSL
Sequence of Metabotropic glutamate receptor 3 (P31422 whole entry): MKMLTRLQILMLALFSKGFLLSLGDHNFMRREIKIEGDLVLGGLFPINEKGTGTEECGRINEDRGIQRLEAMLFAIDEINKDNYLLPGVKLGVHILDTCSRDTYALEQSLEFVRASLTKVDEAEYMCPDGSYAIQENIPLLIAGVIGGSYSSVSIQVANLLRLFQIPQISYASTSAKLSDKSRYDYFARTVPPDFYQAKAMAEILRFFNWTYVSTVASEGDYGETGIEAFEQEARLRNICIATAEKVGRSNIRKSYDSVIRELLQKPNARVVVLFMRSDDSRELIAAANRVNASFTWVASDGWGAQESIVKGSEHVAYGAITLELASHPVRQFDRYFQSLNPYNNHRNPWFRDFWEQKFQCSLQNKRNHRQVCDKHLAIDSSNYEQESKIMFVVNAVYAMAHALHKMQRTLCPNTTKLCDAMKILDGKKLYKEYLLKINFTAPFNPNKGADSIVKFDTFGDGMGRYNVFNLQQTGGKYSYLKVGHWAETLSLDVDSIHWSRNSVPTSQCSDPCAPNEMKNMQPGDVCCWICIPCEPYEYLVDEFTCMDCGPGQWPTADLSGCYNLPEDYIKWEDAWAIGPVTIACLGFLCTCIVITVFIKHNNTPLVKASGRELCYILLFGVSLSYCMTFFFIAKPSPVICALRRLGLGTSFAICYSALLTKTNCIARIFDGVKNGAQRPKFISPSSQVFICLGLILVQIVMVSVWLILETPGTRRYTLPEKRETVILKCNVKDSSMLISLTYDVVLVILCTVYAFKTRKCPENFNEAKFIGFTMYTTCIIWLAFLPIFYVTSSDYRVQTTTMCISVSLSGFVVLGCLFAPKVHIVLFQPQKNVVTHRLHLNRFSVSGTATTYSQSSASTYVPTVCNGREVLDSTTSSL
Sequence of Metabotropic glutamate receptor 2 (P31421 whole entry, looked up): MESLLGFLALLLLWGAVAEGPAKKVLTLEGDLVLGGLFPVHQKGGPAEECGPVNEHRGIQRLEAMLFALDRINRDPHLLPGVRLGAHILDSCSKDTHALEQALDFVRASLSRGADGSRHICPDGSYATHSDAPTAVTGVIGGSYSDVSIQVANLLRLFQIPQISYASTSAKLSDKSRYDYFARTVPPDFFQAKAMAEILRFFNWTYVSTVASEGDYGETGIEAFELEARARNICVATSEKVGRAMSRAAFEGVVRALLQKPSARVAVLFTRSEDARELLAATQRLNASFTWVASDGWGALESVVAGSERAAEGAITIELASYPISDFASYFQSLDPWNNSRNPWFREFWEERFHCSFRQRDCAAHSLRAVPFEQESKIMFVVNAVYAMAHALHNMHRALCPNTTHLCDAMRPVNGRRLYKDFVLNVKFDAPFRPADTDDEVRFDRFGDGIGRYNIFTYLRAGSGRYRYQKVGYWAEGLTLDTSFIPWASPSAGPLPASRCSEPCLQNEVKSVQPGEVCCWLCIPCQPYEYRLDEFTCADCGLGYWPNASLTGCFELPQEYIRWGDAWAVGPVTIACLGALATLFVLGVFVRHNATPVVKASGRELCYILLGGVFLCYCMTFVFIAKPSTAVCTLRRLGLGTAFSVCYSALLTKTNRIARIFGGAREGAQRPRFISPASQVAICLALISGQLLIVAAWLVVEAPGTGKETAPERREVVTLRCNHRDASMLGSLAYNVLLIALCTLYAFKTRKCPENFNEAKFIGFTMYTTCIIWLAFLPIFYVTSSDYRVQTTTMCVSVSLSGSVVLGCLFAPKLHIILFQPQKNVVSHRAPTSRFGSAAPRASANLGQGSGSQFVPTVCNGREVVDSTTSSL

SMILES | IC50 [2] [nM] | Emin [3] [%] | Emax [4] [%] | EC50 [5] [nM] | other results
C[C@H](COc1ccn(-c2ccc(F)cc2)c(=O)c1)Oc1ccccc1 | > 30000 | – | – | – | IC50 [1]: > 30000 nM
O=c1cc(OCCOc2ncccc2Cl)ccn1-c1ccc(F)cc1 | 450 | 3.62 | 94 | – | –
O=c1cc(OCCOc2ccccc2)ccn1-c1cccc(F)c1 | 390 | 3.45 | 88 | 1900 | –
O=c1nc(OCCOc2ccccc2)ccn1-c1ccc(F)c(F)c1 | 1020 | 3.77 | 83 | – | –
O=c1cc(OCCOc2cccc(F)c2)ccn1-c1ccc(F)cc1 | 350 | 3.56 | 93 | 1500 | –
CNC1(c2ccccc2Cl)CCCCC1=O (stereo not drawn) | – | – | – | – | Activity [6]: Active
CC(COc1ccn(-c2ccc(F)cc2)c(=O)c1)Oc1ccccc1 (stereo not drawn) | 1230 | 3.57 | – | > 30000 | IC50 [7]: > 30000 nM; fraction unbound at 4 h, 5 µM [8]: 0.04; Kp [9]: 1.7; IC50 [10]: > 30000 nM; IC50 [11]: > 30000 nM; Kp uu [12]: 1.3; fraction unbound at 4 h, 5 µM [13]: 0.1; IC50 [14]: > 30000 nM; fraction unbound at 6 h, 5 µM [15]: 0.05
N#Cc1cccc(-n2ccc(OCCOc3ccccc3)cc2=O)c1 | 340 | 3.63 | 87 | – | Selectivity ratio [16]: 18
O=c1nc(OCCOc2ccccc2)ccn1-c1ccc(F)cc1 | 290 | 3.94 | 97 | – | fraction unbound at 4 h, 5 µM [8]: 0.16; IC50 [1]: > 30000 nM
Cn1ccc(COc2cnc(C(N)=O)cc2-c2ccc(F)cc2)n1 | – | – | – | – | concentration [17]: 14 µM; Ratio [18]: 180; Activity [19]: inactive
O=c1cc(OCCOc2ccccc2)ccn1-c1ccc(F)cc1 | 930 | 2.69 | 97 | 560 | –
N#Cc1cc(F)cc(-n2ccc(OCCOc3ccccc3)cc2=O)c1 | 270 | 3.39 | 27 | – | –
O=c1cc(OCCOc2ccccc2)ccn1-c1ccc(F)c(F)c1 | 180 | 3.53 | 91 | 340 | –
O=c1cc(OCCOc2cc(Cl)ccn2)ccn1-c1ccc(F)cc1 | 1450 | 3.77 | 82 | – | –
O=c1nc(OCCOc2ccccc2)ccn1-c1cccc(F)c1 | > 10000 | 15.5 | 77 | – | –
